From ChEMBL document CHEMBL1151757, “Synthesis, radiosynthesis, and biological evaluation of fluorine-18-labeled 2beta-carbo(fluoroalkoxy)-3beta-(3'-((Z)-2-haloethenyl)phenyl)nortropanes: candidate radioligands for in vivo imaging of the serotonin transporter with positron emission tomography” (J Med Chem, 2008)

Columns and labels:
[1] = Ratio of drug uptake in frontal lobe to cerebellum in awake rhesus monkey after 75 mins postinjection; assay type: ADME, organism-based, Macaca mulatta; settings: in vivo, 1.25 h
[2] = Drug uptake in awake rhesus monkey brain pons after 0.25 mins postinjection; assay type: ADME, organism-based, Macaca mulatta; settings: in vivo, 15 s
[3] = Ratio of drug uptake in medulla to cerebellum in awake rhesus monkey after 45 mins postinjection; assay type: ADME, organism-based, Macaca mulatta; settings: in vivo, 0.75 h
[4] = Drug uptake in awake rhesus monkey brain frontal lobe after 1.75 mins postinjection; assay type: ADME, organism-based, Macaca mulatta; settings: in vivo, 105 s
[5] = Drug uptake in awake rhesus monkey brain midbrain after 1.25 mins postinjection; assay type: ADME, organism-based, Macaca mulatta; settings: in vivo, 75 s
[6] = Protein binding in anesthetized cynomolgus monkey plasma after 15 mins postinjection; assay type: ADME, organism-based, Macaca fascicularis; settings: read-out: PPB (converted)
[7] = Ratio of drug uptake in caudate to cerebellum in awake rhesus monkey after 105 mins postinjection; assay type: ADME, organism-based, Macaca mulatta; settings: in vivo, 1.75 h
[8] = Drug uptake in awake rhesus monkey brain frontal lobe after 115 mins postinjection; assay type: ADME, organism-based, Macaca mulatta; settings: in vivo
[9] = Drug uptake in awake rhesus monkey brain putamen after 115 mins postinjection; assay type: ADME, organism-based, Macaca mulatta; settings: in vivo
[10] = Drug uptake in awake rhesus monkey brain frontal lobe after 2.75 mins postinjection; assay type: ADME, organism-based, Macaca mulatta; settings: in vivo, 165 s
[11] = Ratio of drug uptake in thalamus to cerebellum in awake rhesus monkey after 75 mins postinjection; assay type: ADME, organism-based, Macaca mulatta; settings: in vivo, 1.25 h
[12] = Drug uptake in awake rhesus monkey brain cerebellum after 115 mins postinjection; assay type: ADME, organism-based, Macaca mulatta; settings: in vivo
[13] = Ratio of drug uptake in thalamus to cerebellum in awake rhesus monkey after 35 mins postinjection; assay type: ADME, organism-based, Macaca mulatta; settings: in vivo
[14] = Ratio of drug uptake in thalamus to cerebellum in awake rhesus monkey after 10.5 mins postinjection; assay type: ADME, organism-based, Macaca mulatta; settings: in vivo, 0.175 h
[15] = Drug uptake in awake rhesus monkey brain putamen after 1.25 mins postinjection; assay type: ADME, organism-based, Macaca mulatta; settings: in vivo, 75 s
[16] = Ratio of drug uptake in medulla to cerebellum in awake rhesus monkey after 25 mins postinjection; assay type: ADME, organism-based, Macaca mulatta; settings: in vivo
[17] = Ratio of drug uptake in midbrain to cerebellum in awake rhesus monkey after 105 mins postinjection; assay type: ADME, organism-based, Macaca mulatta; settings: in vivo, 1.75 h
[18] = Ratio of drug uptake in midbrain to cerebellum in awake rhesus monkey after 35 mins postinjection; assay type: ADME, organism-based, Macaca mulatta; settings: in vivo
[19] = Drug uptake in awake rhesus monkey brain medulla after 0.25 mins postinjection; assay type: ADME, organism-based, Macaca mulatta; settings: in vivo, 15 s
[20] = Ratio of drug uptake in frontal lobe to cerebellum in awake rhesus monkey after 45 mins postinjection; assay type: ADME, organism-based, Macaca mulatta; settings: in vivo, 0.75 h
[21] = Drug uptake in awake rhesus monkey brain pons after 4.5 mins postinjection; assay type: ADME, organism-based, Macaca mulatta; settings: in vivo, 0.075 h
[22] = Protein binding in anesthetized cynomolgus monkey plasma after 30 mins postinjection; assay type: ADME, organism-based, Macaca fascicularis; settings: read-out: PPB (converted)
[23] = Drug uptake in awake rhesus monkey brain frontal lobe after 1.25 mins postinjection; assay type: ADME, organism-based, Macaca mulatta; settings: in vivo, 75 s
[24] = Metabolic stability in anesthetized cynomolgus monkey plasma after 180 mins postinjection; assay type: ADME, organism-based, Macaca fascicularis; settings: read-out: Stability
[25] = Protein binding in anesthetized cynomolgus monkey plasma after 60 mins postinjection; assay type: ADME, organism-based, Macaca fascicularis; settings: read-out: PPB (converted)
[26] = Drug uptake in awake rhesus monkey brain pons after 13.5 mins postinjection; assay type: ADME, organism-based, Macaca mulatta; settings: in vivo, 0.225 h
[27] = Ratio of drug uptake in medulla to cerebellum in awake rhesus monkey after 85 mins postinjection; assay type: ADME, organism-based, Macaca mulatta; settings: in vivo
[28] = Ratio of drug uptake in pons to cerebellum in awake rhesus monkey after 2.8 mins postinjection; assay type: ADME, organism-based, Macaca mulatta; settings: in vivo, 168 s
[29] = Ratio of drug uptake in pons to cerebellum in anesthetized cynomolgus monkey after 165 mins postinjection; assay type: ADME, organism-based, Macaca fascicularis; settings: in vivo, 2.75 h
[30] = Drug uptake in awake rhesus monkey caudate after 0.8 mins postinjection; assay type: ADME, organism-based, Macaca mulatta, Caudate nucleus; settings: in vivo, 48 s
[31] = Ratio of drug uptake in pons to cerebellum in awake rhesus monkey after 2.3 mins postinjection; assay type: ADME, organism-based, Macaca mulatta; settings: in vivo, 138 s
[32] = Ratio of drug uptake in medulla to cerebellum in anesthetized cynomolgus monkey after 235 mins postinjection; assay type: ADME, organism-based, Macaca fascicularis; settings: in vivo
[33] = Drug uptake in awake rhesus monkey frontal lobe after 2.8 mins postinjection; assay type: ADME, organism-based, Macaca mulatta; settings: in vivo, 168 s
[34] = Ratio of drug uptake in midbrain to cerebellum in awake rhesus monkey after 115 mins postinjection; assay type: ADME, organism-based, Macaca mulatta; settings: in vivo
[35] = Ratio of drug uptake in occipital lobe to cerebellum in awake rhesus monkey after 65 mins postinjection; assay type: ADME, organism-based, Macaca mulatta; settings: in vivo
[36] = Drug uptake in awake rhesus monkey medulla after 2.3 mins postinjection; assay type: ADME, organism-based, Macaca mulatta, Medulla of organ; settings: in vivo, 138 s
[37] = Ratio of drug uptake in pons to cerebellum in awake rhesus monkey after 105 mins postinjection; assay type: ADME, organism-based, Macaca mulatta; settings: in vivo, 1.75 h
[38] = Ratio of drug uptake in frontal lobe to cerebellum in awake rhesus monkey after 2.8 mins postinjection; assay type: ADME, organism-based, Macaca mulatta; settings: in vivo, 168 s
[39] = Drug uptake in awake rhesus monkey midbrain after 2.3 mins postinjection; assay type: ADME, organism-based, Macaca mulatta; settings: in vivo, 138 s
[40] = Ratio of drug uptake in pons to cerebellum in awake rhesus monkey after 0.3 mins postinjection; assay type: ADME, organism-based, Macaca mulatta; settings: in vivo, 0.005 h
[41] = Ratio of drug uptake in occipital lobe to cerebellum in awake rhesus monkey after 0.8 mins postinjection; assay type: ADME, organism-based, Macaca mulatta; settings: in vivo, 48 s
[42] = molecular target: Sodium-dependent noradrenaline transporter (Homo sapiens, UniProt P23975); assay: Displacement of [3H]nisoxetine from human NET transfected in human HEK293 cells; assay type: cell-based
Sequence of Sodium-dependent noradrenaline transporter (P23975 whole entry): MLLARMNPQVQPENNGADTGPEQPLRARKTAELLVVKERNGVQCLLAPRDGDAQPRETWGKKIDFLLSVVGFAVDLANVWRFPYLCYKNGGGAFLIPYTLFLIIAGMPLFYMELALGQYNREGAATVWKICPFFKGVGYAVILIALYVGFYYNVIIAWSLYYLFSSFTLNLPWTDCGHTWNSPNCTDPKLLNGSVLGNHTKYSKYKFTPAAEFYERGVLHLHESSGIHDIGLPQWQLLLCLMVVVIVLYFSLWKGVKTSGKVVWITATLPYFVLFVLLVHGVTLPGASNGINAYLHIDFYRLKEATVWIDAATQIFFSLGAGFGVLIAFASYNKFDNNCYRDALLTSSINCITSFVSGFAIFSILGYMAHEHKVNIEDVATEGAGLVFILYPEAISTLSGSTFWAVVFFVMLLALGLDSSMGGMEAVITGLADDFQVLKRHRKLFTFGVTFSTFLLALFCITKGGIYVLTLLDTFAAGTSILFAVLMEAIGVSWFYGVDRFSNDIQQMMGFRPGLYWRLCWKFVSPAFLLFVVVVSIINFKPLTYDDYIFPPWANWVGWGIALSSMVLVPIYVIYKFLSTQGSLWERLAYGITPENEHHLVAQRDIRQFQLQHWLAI

[43] = Drug uptake in awake rhesus monkey putamen after 0.3 mins postinjection; assay type: ADME, organism-based, Macaca mulatta; settings: in vivo, 0.005 h
[44] = Ratio of drug uptake in midbrain to cerebellum in awake rhesus monkey after 45 mins postinjection; assay type: ADME, organism-based, Macaca mulatta; settings: in vivo, 0.75 h
[45] = molecular target: Sodium-dependent serotonin transporter (Homo sapiens, UniProt P31645); assay: Displacement of [3H](R,S)citalopram.HBr from human SERT transfected in human HEK293 cells; assay type: cell-based
Sequence of Sodium-dependent serotonin transporter (P31645 whole entry): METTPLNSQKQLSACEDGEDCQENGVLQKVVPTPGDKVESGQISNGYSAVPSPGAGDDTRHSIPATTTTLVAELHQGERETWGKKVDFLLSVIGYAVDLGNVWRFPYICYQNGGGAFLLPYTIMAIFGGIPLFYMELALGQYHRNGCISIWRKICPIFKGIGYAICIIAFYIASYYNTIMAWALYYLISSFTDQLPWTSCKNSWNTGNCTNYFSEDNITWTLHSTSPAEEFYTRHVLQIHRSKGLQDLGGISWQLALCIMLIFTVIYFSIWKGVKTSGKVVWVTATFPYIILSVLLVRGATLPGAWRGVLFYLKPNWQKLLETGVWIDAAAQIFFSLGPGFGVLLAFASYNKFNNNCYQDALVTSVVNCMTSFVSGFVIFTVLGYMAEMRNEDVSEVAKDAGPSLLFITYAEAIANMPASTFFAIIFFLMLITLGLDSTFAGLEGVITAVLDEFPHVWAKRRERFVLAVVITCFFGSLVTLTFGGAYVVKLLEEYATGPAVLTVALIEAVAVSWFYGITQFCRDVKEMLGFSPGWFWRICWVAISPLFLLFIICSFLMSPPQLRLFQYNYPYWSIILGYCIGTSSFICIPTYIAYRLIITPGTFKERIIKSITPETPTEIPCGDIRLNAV

[46] = Drug uptake in awake rhesus monkey midbrain after 1.3 mins postinjection; assay type: ADME, organism-based, Macaca mulatta; settings: in vivo, 78 s
[47] = Ratio of drug uptake in putamen to cerebellum in awake rhesus monkey after 0.3 mins postinjection; assay type: ADME, organism-based, Macaca mulatta; settings: in vivo, 0.005 h
[48] = Ratio of drug uptake in frontal lobe to cerebellum in awake rhesus monkey after 65 mins postinjection; assay type: ADME, organism-based, Macaca mulatta; settings: in vivo
[49] = Drug uptake in awake rhesus monkey thalamus after 0.3 mins postinjection; assay type: ADME, organism-based, Macaca mulatta; settings: in vivo, 0.005 h
[50] = Ratio of drug uptake in caudate to cerebellum in awake rhesus monkey after 2.8 mins postinjection; assay type: ADME, organism-based, Macaca mulatta; settings: in vivo, 168 s
[51] = Drug uptake in awake rhesus monkey occipital lobe after 2.3 mins postinjection; assay type: ADME, organism-based, Macaca mulatta; settings: in vivo, 138 s
[52] = Ratio of drug uptake in pons to cerebellum in awake rhesus monkey after 0.8 mins postinjection; assay type: ADME, organism-based, Macaca mulatta; settings: in vivo, 48 s
[53] = Drug uptake in awake rhesus monkey cerebellum after 1.8 mins postinjection; assay type: ADME, organism-based, Macaca mulatta; settings: in vivo, 0.03 h
[54] = Drug uptake in awake rhesus monkey putamen after 2.3 mins postinjection; assay type: ADME, organism-based, Macaca mulatta; settings: in vivo, 138 s
[55] = Drug uptake in awake rhesus monkey occipital lobe after 25 mins postinjection; assay type: ADME, organism-based, Macaca mulatta; settings: in vivo
[56] = Drug uptake in awake rhesus monkey midbrain after 1.8 mins postinjection; assay type: ADME, organism-based, Macaca mulatta; settings: in vivo, 0.03 h
[57] = Ratio of drug uptake in putamen to cerebellum in awake rhesus monkey after 25 mins postinjection; assay type: ADME, organism-based, Macaca mulatta; settings: in vivo
[58] = Ratio of drug uptake in pons to cerebellum in anesthetized cynomolgus monkey after 205 mins postinjection; assay type: ADME, organism-based, Macaca fascicularis; settings: in vivo
[59] = Ratio of drug uptake in occipital lobe to cerebellum in awake rhesus monkey after 4.5 mins postinjection; assay type: ADME, organism-based, Macaca mulatta; settings: in vivo, 0.075 h
[60] = Drug uptake in anesthetized cynomolgus monkey brain occipital lobe after 187.5 mins postinjection; assay type: ADME, organism-based, Macaca fascicularis; settings: in vivo, 3.125 h
[61] = Drug uptake in anesthetized cynomolgus monkey brain occipital lobe after 207.5 mins postinjection; assay type: ADME, organism-based, Macaca fascicularis; settings: in vivo
[62] = Drug uptake in anesthetized cynomolgus monkey brain frontal lobe after 202.5 mins postinjection; assay type: ADME, organism-based, Macaca fascicularis; settings: in vivo, 3.375 h
[63] = Drug uptake in anesthetized cynomolgus monkey brain occipital lobe after 182.5 mins postinjection; assay type: ADME, organism-based, Macaca fascicularis; settings: in vivo

O=C(OCC[18F])C1C2CCC(CC1c1cccc(/C=C\I)c1)N2 (stereo not drawn)
Ratio [1]: 1.1
Drug uptake [2]: 0
Ratio [3]: 1
Drug uptake [4]: 0.02
Drug uptake [5]: 0.01
fraction unbound at 0.25 h [6]: 0.932
Ratio [7]: 1.4
Drug uptake [8]: 0.1
Drug uptake [9]: 0.13
Drug uptake [10]: 0.03
Ratio [11]: 1.5
Drug uptake [12]: 0.08
Ratio [13]: 1.4
Ratio [14]: 1.4
Drug uptake [15]: 0.01
Ratio [16]: 1
Ratio [17]: 1.7
Ratio [18]: 1.3
Drug uptake [19]: 0
Ratio [20]: 1
Drug uptake [21]: 0.05
fraction unbound at 0.5 h [22]: 0.916
Drug uptake [23]: 0
remaining at 3 h [24]: 13%
fraction unbound at 1 h [25]: 0.915
Drug uptake [26]: 0.08
Ratio [27]: 1.1

O=C(OCC[18F])C1C2CCC(CC1c1ccc(/C=C\I)cc1)N2 (stereo not drawn)
Ratio [28]: 1
Ratio [29]: 2.6
Drug uptake [30]: 0
Ratio [31]: 0.9
Ratio [32]: 3.3
Drug uptake [33]: 0.47
Ratio [34]: 2.5
Ratio [35]: 1.6
Drug uptake [36]: 0.68
Ratio [37]: 1.8
Ratio [38]: 0.9
Drug uptake [39]: 0.39
Ratio [40]: 0
Ratio [41]: 1.9
Ki [42]: 28 nM
Drug uptake [43]: 0.05
Ratio [44]: 1.3
Ki [45]: 0.08 nM
Drug uptake [46]: 0.05
Ratio [47]: 5.1
Ratio [48]: 1.3
Drug uptake [49]: 0
Ratio [50]: 1
Drug uptake [51]: 0.36
Ratio [52]: 4.8
Drug uptake [53]: 0.27
Drug uptake [54]: 0.46
Drug uptake [55]: 2.48
Drug uptake [56]: 0.25
Ratio [57]: 1.3
Ratio [58]: 2.7
Ratio [59]: 0.9

O=C(OCCC[18F])C1C2CCC(CC1c1cccc(/C=C\Br)c1)N2 (stereo not drawn)
Drug uptake [60]: 3.05
Drug uptake [61]: 2.68
Drug uptake [62]: 2.23
Drug uptake [63]: 2.93
